These results are taken from ChEMBL document CHEMBL1137226, “Structure modifications of 6-aminoquinolones with potent anti-HIV activity” (J Med Chem, 2004).

Converted amounts (≈) assume the structure as drawn.

In assay [1] the test system is CCRF-CEM. Briefly: Concentration of compound that reduces the viability of mock-infected CEM cells by 50%. The assay is classed as functional. As to conditions: Homo sapiens.
Assay [2] deals with MT4. Nature of the assay: Concentration of compound that reduces the viability of mock-infected MT-4 cells by 50%. The assay is classed as functional. As to conditions: Homo sapiens.
Assay [3] deals with MT4. Nature of the assay: Maximum protection (%) of MT-4 cells from HIV-2 (ROD) induced cytopathogenicity; value ranges from 60-64%. The assay is classed as functional, Homo sapiens.
In assay [4] the test system is MT4. Briefly: Maximum protection (%) of MT-4 cells from HIV-1 (IIIB) induced cytopathogenicity; value ranges from 35-59%. Format: functional, Homo sapiens. For orientation: Damage to the host cells serves as the signal in cytopathic effect assays.
In assay [5] the test system is MT4. Nature of the assay: Concentration required for protection of MT-4 cells from HIV-1 (IIIB) induced cytopathogenicity in MTT assay. The assay is classed as functional, cell-based. The settings on record: Homo sapiens.
The nature of assay [6]: Concentration of compound required for reduction of p24 production in HIV-1 (IIIB) infected peripheral blood mononuclear cells. Format: functional. The settings on record: Homo sapiens.
The subject of assay [7] is CCRF-CEM. Briefly: Concentration of compound required for protection of CEM cells from HIV-2 (ROD) induced cytopathogenicity. Format: functional, cell-based. The settings on record: Homo sapiens.
Assay [8] relates to CCRF-CEM. Briefly: Concentration of compound required for protection of CEM cells from HIV-1 (IIIB) induced cytopathogenicity. As to conditions: Homo sapiens. Format: functional, cell-based.
Assay [9] deals with MT4. Briefly: Concentration required for protection of MT-4 cells from HIV-2 (ROD) induced cytopathogenicity in MTT assay. As to conditions: Homo sapiens. The assay is classed as functional, cell-based.
The nature of assay [10]: Concentration of compound that reduces the viability of mock-infected peripheral blood mononuclear cells by 50%. The assay is classed as functional. As to conditions: Homo sapiens.
The subject of assay [11] is CCRF-CEM. Nature of the assay: Selectivity index towards HIV-2 (ROD) in CEM cells. Format: functional, Homo sapiens.
Assay [12] deals with CCRF-CEM. Briefly: Selectivity index towards HIV-1 (IIIB) in CEM cells. The assay is classed as functional, Homo sapiens.
The test system of assay [13] is MT4. Nature of the assay: Selectivity index towards HIV-2 (ROD) in MT-4 cells. The assay is classed as functional, Homo sapiens.
Assay [14] has as its system MT4. Nature of the assay: Selectivity index towards HIV-1 (IIIB) in MT-4 cells. The assay is classed as functional, Homo sapiens.
Assay [15] in a line: Selectivity index towards HIV-1 (IIIB) in peripheral blood mononuclear cells. Format: functional, Homo sapiens.
Assay [16] has as its system MT4. Nature of the assay: Maximum protection (%) of MT-4 cells from HIV-2 (ROD) induced cytopathogenicity. The assay is classed as functional, Homo sapiens.
The test system of assay [17] is MT4. Nature of the assay: Maximum protection (%) of MT-4 cells from HIV-1 (IIIB) induced cytopathogenicity; value ranges from 4-8%. The assay is classed as functional, Homo sapiens.
Assay [18] relates to MT4. Briefly: Maximum protection (%) of MT-4 cells from HIV-1 (IIIB) induced cytopathogenicity; value ranges from 0-1%. Format: functional, Homo sapiens.
Assay [19] deals with MT4. Nature of the assay: Maximum protection (%) of MT-4 cells from HIV-1 (IIIB) induced cytopathogenicity; value ranges from 10-27%. The assay is classed as functional, Homo sapiens.
Assay [20] concerns MT4. Briefly: Maximum protection (%) of MT-4 cells from HIV-2 (ROD) induced cytopathogenicity; value ranges from 43-78%. The assay is classed as functional, Homo sapiens.
Assay [21] deals with MT4. Nature of the assay: Maximum protection (%) of MT-4 cells from HIV-1 (IIIB) induced cytopathogenicity; value ranges from 57-110%. The assay is classed as functional, Homo sapiens.
Assay [22] has as its system MT4. Briefly: Maximum protection (%) of MT-4 cells from HIV-2 (ROD) induced cytopathogenicity; value ranges from 29-63%. The assay is classed as functional, Homo sapiens.
Assay [23] concerns MT4. Briefly: Maximum protection (%) of MT-4 cells from HIV-1 (IIIB) induced cytopathogenicity; value ranges from 29-40%. Format: functional, Homo sapiens.
Assay [24] has as its system MT4. Briefly: Maximum protection (%) of MT-4 cells from HIV-2 (ROD) induced cytopathogenicity; value ranges from 51-81%. The assay is classed as functional, Homo sapiens.
Assay [25] deals with MT4. Nature of the assay: Maximum protection (%) of MT-4 cells from HIV-1 (IIIB) induced cytopathogenicity; value ranges from 25-30%. The assay is classed as functional, Homo sapiens.

On to `Cn1cc(C(=O)O)c(=O)c2cc(N)c(N3CCN(c4ccccn4)CC3)cc21`, for which the CC50 (commonly the concentration that lowers cell viability or growth by half) was greater than 100 µg/mL in the assay with CCRF-CEM [1], 0.71 µg/mL (≈ 1.87 µM) in the assay on MT4 [2] and 1.45 µg/mL (≈ 3.82 µM) in [10]. The Protection in the assay with MT4 [3] is listed as less than 64%; in the assay with MT4 [4], less than 59%. Also, the EC50 (usually the concentration at which the effect is half-maximal) is no less than 0.29 µg/mL in the assay with MT4 [5]; 0.05 µg/mL (≈ 0.132 µM) in [6]; 0.06 µg/mL (≈ 0.158 µM) with CCRF-CEM [7]; 0.03 µg/mL (≈ 0.0791 µM) in the assay with CCRF-CEM [8]; 0.19 µg/mL (≈ 0.501 µM) with MT4 [9]. The Selectivity index in the assay with CCRF-CEM [11] was greater than 1667; in the assay with CCRF-CEM [12], greater than 3333; in the assay with MT4 [13], 3.7; in the assay with MT4 [14] it was “<=2.4”; in [15] it was 28.
In the case of `Cn1cc(C(=O)O)c(=O)c2cc(N)c(N3CCN(c4nc5cc(Cl)ccc5s4)CC3)cc21`, the CC50 with MT4 [2] was determined as 0.0021 µg/mL (≈ 0.00447 µM). Further, the Protection in the assay with MT4 [16] is listed as 3%; in the assay with MT4 [17], less than 8%. The EC50 in the assay with MT4 [5] and in the assay with MT4 [9] was greater than 0.0021 µg/mL in each case. Moreover, the Selectivity index with MT4 [13] and in the assay on MT4 [14] was less than 1 in each case.
`Cn1cc(C(=O)O)c(=O)c2cc(N)c(N3CCN(c4nc5ccccc5[nH]4)CC3)cc21` had a CC50 in the assay on MT4 [2] greater than 125 µg/mL. In addition, the results for the Protection in the assay on MT4 [16] and in the assay on MT4 [18] were 0% and less than 1%, respectively. In addition, the EC50 with MT4 [5] and in the assay on MT4 [9] was greater than 125 µg/mL each time.
The compound `Cn1cc(C(=O)O)c(=O)c2cc(N)c(N3CCN(C4=Nc5ccccc5SC4)CC3)cc21` displayed a CC50 in the assay with MT4 [2] of 2.14 µg/mL (≈ 4.76 µM). For the same compound, the Protection with MT4 [16] is reported as 15%; in the assay with MT4 [19], less than 27%. Moreover, the EC50 in the assay on MT4 [5] and with MT4 [9] was greater than 2.14 µg/mL in each case. Besides, the Selectivity index with MT4 [13] and in the assay on MT4 [14] was less than 1 in each case.
For `Cn1cc(C(=O)O)c(=O)c2cc(N)c(N3CCN(c4cccc(C(F)(F)F)c4)CC3)cc21`, the cytotoxic concentration (CC50) in the assay with CCRF-CEM [1] stood at 8 µg/mL (≈ 17.9 µM); with MT4 [2], 2.18 µg/mL (≈ 4.88 µM); in [10] it was 1.55 µg/mL (≈ 3.47 µM). The Protection in the assay with MT4 [20] is given as less than 78%; in the assay on MT4 [21], less than 110%. Moreover, the EC50 is 0.31 µg/mL (≈ 0.694 µM) with MT4 [5]; 0.05 µg/mL (≈ 0.112 µM) in assay [6]; 0.2 µg/mL (≈ 0.448 µM) in the assay with CCRF-CEM [7]; 0.09 µg/mL (≈ 0.202 µM) with CCRF-CEM [8]; no less than 0.31 µg/mL in the assay on MT4 [9]. Also, the Selectivity index was 40 in the assay with CCRF-CEM [11]; 89 with CCRF-CEM [12]; “<=7” with MT4 [13]; 7 in the assay with MT4 [14]; 28 in [15].
Compound `Cc1nnc(N2CCN(c3cc4c(cc3N)c(=O)c(C(=O)O)cn4C)CC2)s1` showed a CC50 in the assay with MT4 [2] greater than 125 µg/mL. For the same compound, the results for the Protection in the assay with MT4 [22] and with MT4 [23] were less than 63% and less than 40%, respectively. Also, the EC50 was greater than 125 µg/mL in the assay on MT4 [5] and no less than 10.3 µg/mL in the assay on MT4 [9]. In addition, the Selectivity index result is reported as “<=12.1” in the assay with MT4 [13] and less than 1 with MT4 [14].
`Cn1cc(C(=O)O)c(=O)c2cc(N)c(N3CCN(c4nc5ccccc5s4)CC3)cc21`: the CC50 in the assay with MT4 [2] turned out to be 0.0054 µg/mL (≈ 0.0124 µM). The results for the Protection with MT4 [24] and in the assay with MT4 [25] were less than 81% and less than 30%, respectively. Moreover, the EC50 in the assay with MT4 [5] was greater than 0.0054 µg/mL; in the assay with MT4 [9], 0.0011 µg/mL (≈ 0.00253 µM). Besides, the figures for the Selectivity index with MT4 [13] and with MT4 [14] were 5.1 and less than 1, respectively.
